Measured values: patent US6355633B1, “Aryl sulfonic acids and derivatives as FSH antagonists” (American Home Products Corporation, priority 1999, dated 2002)

Target: T1, FSH receptor (Homo sapiens, UniProt P23945)
T1 sequence (P23945 18-695): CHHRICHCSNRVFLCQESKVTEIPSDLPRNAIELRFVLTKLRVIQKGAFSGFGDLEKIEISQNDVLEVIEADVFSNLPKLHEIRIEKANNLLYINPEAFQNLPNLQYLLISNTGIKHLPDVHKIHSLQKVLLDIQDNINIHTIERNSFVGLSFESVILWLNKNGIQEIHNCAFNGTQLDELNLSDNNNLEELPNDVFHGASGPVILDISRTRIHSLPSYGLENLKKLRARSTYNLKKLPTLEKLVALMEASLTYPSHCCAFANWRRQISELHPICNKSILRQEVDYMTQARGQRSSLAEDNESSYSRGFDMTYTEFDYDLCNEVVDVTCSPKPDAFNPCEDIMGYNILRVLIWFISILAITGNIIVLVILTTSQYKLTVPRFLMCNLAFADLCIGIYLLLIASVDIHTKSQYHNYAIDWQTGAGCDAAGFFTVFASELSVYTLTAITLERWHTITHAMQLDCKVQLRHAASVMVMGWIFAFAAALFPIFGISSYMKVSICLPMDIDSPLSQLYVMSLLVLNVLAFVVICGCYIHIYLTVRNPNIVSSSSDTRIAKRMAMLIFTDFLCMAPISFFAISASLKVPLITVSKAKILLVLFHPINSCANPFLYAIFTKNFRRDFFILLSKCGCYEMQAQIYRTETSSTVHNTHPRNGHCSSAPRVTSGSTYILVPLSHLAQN
Assay: FSH Receptor Radioligand Membrane Binding Standard Pharmacological Test Procedure
Design: expressed in transfected cells
Conditions: [125I]FSH binding to membranes of CHO cells stably transfected with the human FSH receptor
Outline: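 Membranes from CHO cells stably expressing human FSH receptor; compounds pre-incubated 15 min at room temperature, then [125I]FSH added (diluted to 200 pM before addition) for 2 h at room temperature in pH 7.2 Tris buffer with protease inhibitors and BSA. Bound radioactivity after filtration counted by gamma counter; non-specific binding defined with unlabelled human FSH.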

Compound | IC50 [nM]
2,2′-[(E)-1,2-Ethenediyl]bis[5-[[4-(methylthio)-3-(4-morpholinylsulfonyl)benzoyl]amino]benzenesulfonic Acid] [Example 30b] | 1200
COCCOCCOc1ccc(C(=O)Nc2ccc(/C=C/c3ccc(NC(=O)c4ccc(OCCOCCOC)c(S(=O)(=O)N5CCOCC5)c4)cc3S(=O)(=O)O)c(S(=O)(=O)O)c2)cc1S(=O)(=O)N1CCOCC1 [Example 30a, 2,2′-[(E)-1,2-Ethenediyl]bis[5-[[4-[2-(2-methoxyethoxy)ethoxy]-3-(4-morpholinylsulfonyl)benzoyl]amino]benzenesulfonic Acid]] | 1600
CS(=O)(=O)c1ccc(C(=O)Nc2ccc(/C=C/c3ccc(NC(=O)c4ccc(S(C)(=O)=O)c([N+](=O)[O-])c4)cc3S(=O)(=O)O)c(S(=O)(=O)O)c2)cc1[N+](=O)[O-] [Example 30c, 2.2′-[(E)-1,2-Ethenediyl]bis[5-[[(4-methylsulfonyl)-3-(nitro)-benzoyl]amino]benzenesulfonic Acid]] | 1600
CS(=O)(=O)c1ccc(C(=O)Nc2ccc(/C=C/c3ccc(NC(=O)c4ccc(S(C)(=O)=O)c(S(=O)(=O)N5CCOCC5)c4)cc3S(=O)(=O)O)c(S(=O)(=O)O)c2)cc1S(=O)(=O)N1CCOCC1 [Example 30d, 2,2′-[(E)-1,2-Ethenediyl]bis[5-[[4-(methylsulfonyl)-3-(4-morpholinylsulfonyl)benzoyl]amino]benzenesulfonic Acid]] | 1500
CSc1ccc(C(=O)Nc2ccc(/C=C/c3ccc(NC(=O)c4ccc(S(C)(=O)=O)c([N+](=O)[O-])c4)cc3S(=O)(=O)O)c(S(=O)(=O)O)c2)cc1S(=O)(=O)N1CCOCC1 [Example 30e] | 2500
COCCNS(=O)(=O)c1cc(C(=O)Nc2ccc(/C=C/c3ccc(NC(=O)c4ccc(S(C)(=O)=O)c([N+](=O)[O-])c4)cc3S(=O)(=O)O)c(S(=O)(=O)O)c2)ccc1OC [Example 30f] | 1900
COc1ccc(C(=O)Nc2ccc(/C=C/c3ccc(NC(=O)c4ccc(S(C)(=O)=O)cc4)cc3S(=O)(=O)O)c(S(=O)(=O)O)c2)cc1S(=O)(=O)N1CCOCC1 [Example 30g] | 1600
COc1ccc(C(=O)Nc2ccc(/C=C/c3ccc(NC(=O)c4ccc(OC)c(S(=O)(=O)N5CCS(=O)(=O)CC5)c4)cc3S(=O)(=O)O)c(S(=O)(=O)O)c2)cc1S(=O)(=O)N1CCS(=O)(=O)CC1 [Example 30k, 2,2′-[(E)-1,2-Ethenediyl]bis[5-[[3-[(1,1-dioxido-4-thiomorpholinyl)sulfonyl]-4-methoxybenzoyl]amino]benzenesulfonic Acid]] | 2000
COCCNS(=O)(=O)c1cc(C(=O)Nc2ccc(/C=C/c3ccc(NC(=O)c4ccc(OC)c(S(=O)(=O)NCCOC)c4)cc3S(=O)(=O)O)c(S(=O)(=O)O)c2)ccc1OC [Example 30m, 2,2′-[(E)-1,2-Ethenediyl]bis[5-[[4-methoxy-3-[[(2-methoxyethyl)amino]sulfonyl]benzoyl]amino]benzenesulfonic Acid]] | 2200
CS(=O)(=O)c1ccc(C(=O)Nc2ccc(/C=C/c3ccc(NC(=O)c4ccc(S(C)(=O)=O)cc4)cc3S(=O)(=O)O)c(S(=O)(=O)O)c2)cc1 [Example 30q, 2,2′-[(E)-1,2-Ethenediyl]bis[5-[[4-(methylsulfonyl)benzoyl]amino]benzenesulfonic Acid]] | 4000
O=C(Nc1ccc(/C=C/c2ccc(NC(=O)c3ccc(OC4CCOCC4)c(S(=O)(=O)N4CCOCC4)c3)cc2S(=O)(=O)O)c(S(=O)(=O)O)c1)c1ccc(OC2CCOCC2)c(S(=O)(=O)N2CCOCC2)c1 [Example 30r, 2,2′-[(E)-1,2-Ethenediyl]bis[5-[[3-(4-morpholinylsulfonyl)-4-[(tetrahydro-2H-pyran-4-yl)oxy]benzoyl]amino]benzenesulfonic Acid]] | 1100
COc1ccc(C(=O)Nc2ccc(/C=C/c3ccc(NC(=O)c4ccc(OC)c(S(=O)(=O)N5CCOCC5)c4)cc3S(=O)(=O)O)c(S(=O)(=O)O)c2)cc1S(=O)(=O)N1CCOCC1 [Example 30s, 2,2′-[(E)-1,2-Ethenediyl]bis[5-[[4-methoxy-3-(4-morpholinylsulfonyl)benzoyl]amino]benzenesulfonic Acid]] | 3000
COCCOc1ccc(C(=O)Nc2ccc(/C=C/c3ccc(NC(=O)c4ccc(OCCOC)c(S(=O)(=O)N5CCOCC5)c4)cc3S(=O)(=O)O)c(S(=O)(=O)O)c2)cc1S(=O)(=O)N1CCOCC1 [Example 30t, 2,2′-[(E)-1,2-Ethenediyl]bis[5-[[4-(2-methoxyethoxy)-3-(4-morpholinylsulfony)benzoyl]amino]benzenesulfonic Acid]] | 1300
CCS(=O)(=O)c1ccc(C(=O)Nc2ccc(/C=C/c3ccc(NC(=O)c4ccc(S(=O)(=O)CC)cc4)cc3S(=O)(=O)O)c(S(=O)(=O)O)c2)cc1 [Example 32f, 2,2′-[(E)-1,2-Ethenediyl]bis[5-[[4-(ethylsulfonyl)benzoyl]amino]benzenesulfonic Acid]] | 2900
COc1ccc(C(=O)Nc2ccc(/C=C/c3ccc(NC(=O)c4ccc(OC)c(S(=O)(=O)N5CCSCC5)c4)cc3S(=O)(=O)O)c(S(=O)(=O)O)c2)cc1S(=O)(=O)N1CCSCC1 [Example 33d, 2,2′-[(E)-1,2-Ethenediyl]bis[5-[[4-methoxy-3-(4-thiomorpholinylsulfonyl)benzoyl]amino]benzenesulfonic Acid]] | 5200
COc1ccc(C(=O)Nc2ccc(/C=C/c3ccc(NC(=O)c4ccc(OC)c(S(=O)(=O)N5CCCC5)c4)cc3S(=O)(=O)O)c(S(=O)(=O)O)c2)cc1S(=O)(=O)N1CCCC1 [Example 33e, 2,2′-[(E)-1,2-Ethenediyl]bis[5-[[4-methoxy-3-(1-pyrrolidinylsulfonyl)benzoyl]amino]benzenesulfonic Acid]] | 4300
COc1ccc(C(=O)Nc2ccc(/C=C/c3ccc(NC(=O)c4ccc(OC)c(S(=O)(=O)N5CCN(C(C)=O)CC5)c4)cc3S(=O)(=O)O)c(S(=O)(=O)O)c2)cc1S(=O)(=O)N1CCN(C(C)=O)CC1 [Example 34a, 2,2′-[(E)-1,2-Ethenediyl]bis[5-[[3-[(4-acetyl-1-piperazinyl)sulfonyl]-4-methoxybenzoyl]amino]benzenesulfonic Acid]] | 3800
COc1ccc(C(=O)Nc2ccc(/C=C/c3ccc(NC(=O)c4ccc(OC)c(S(=O)(=O)N5CCN(C=O)CC5)c4)cc3S(=O)(=O)O)c(S(=O)(=O)O)c2)cc1S(=O)(=O)N1CCN(C=O)CC1 [Example 34b, 2,2′-[(E)-1,2-Ethenediyl]bis[5-[[3-[(4-formyl-1-piperazinyl)sulfonyl]-4-methoxybenzoyl]amino]benzenesulfonic Acid]] | 1600
COc1ccc(C(=O)Nc2ccc(CCc3ccc(NC(=O)c4ccc(S(C)(=O)=O)cc4)cc3S(=O)(=O)O)c(S(=O)(=O)O)c2)cc1S(=O)(=O)N1CCOCC1 [Example 43a, 5-[[4-Methoxy-3-(4-morpholinylsulfonyl)benzoyl]amino]-2-[2-[4-[[4-(methylsulfonyl)benzoyl]amino]-2-sulfophenyl]ethyl]benzenesulfonic Acid] | 2000
